Source: patent US6130248A, “Tricarboxylic acid-containing oxyalkyl esters and uses thereof” (Bar-ILAn University, priority 1996, dated 2000)

Columns and labels:
IMR-32 (Neuroblastoma) = test: Clonogenicity of established tumor cell lines (soft agar); type: cell-based, human
Experimental: (§1) Inhibition of tumor growth was tested using cell lines as follows: […]

[1] = test system: LNCaP (Prostate Carcinoma); test: as above; type: cell-based, human
Experimental: as §1

[2] = test system: MCF7-WT (Breast Carcinoma); test: as above; type: cell-based, human
Experimental: as §1

PC3 (Prostate Carcinoma) = test: as above; type: cell-based, human
Experimental: as §1

[3] = test system: 53 primary tumor cell lines; test: Inhibition of clonogenicity of primary tumor cells; type: cell-based, human
From the text: The tested tumor cells were from 11 non-small cell lung carcinomas, 10 breast carcinomas, 10 gastric carcinomas, 10 ovarian carcinomas, and 10 CNS tumors.

[4] = test system: established tumor cell lines; test: Clonogenicity of established tumor cell lines, all lines together; type: cell-based, human; settings: all cell lines
Experimental: as §1

[5] = test system: P3HR-1 EBV-positive lymphoma cells; test: [3H]-thymidine incorporation in EBV-positive lymphoma cells; type: cell-based, human; settings: 72 hours
Experimental: The effect of GOMB to AB was compared on EBV virus-associated tumors. EBV-positive cells from P3HR-1, a human lymphoma cell line, were incubated in growth medium with the specified concentration of GOMB, AB, ganciclovir (GC), or combination of these, for 72 hours, seeded in 96-well plates and pulsed with 1 μCi [^3 H]-thymidine/well during the last 16 hours of exposure to the compounds. Cells were harvested with a cell harvester, using glass microfiber filters. The incorporation of [^3 H]-thymidine was determined by retention of the acid insoluble fraction on filters and is expressed as CPM.

[6] = test system: Au565 breast carcinoma cells; test: Differentiation by lipid staining; type: cell-based, human; settings: 10 μM
From the text: Lipid staining and/or immunochemical staining of casein can be used as a marker for cellular differentiation of breast cancer cells (Bacus et al., Md. Carcin. 3:350-362, 1990). Casein detection can be done by histochemical staining of breast cancer cells using a human antibody to human casein as described by Cheung et al., J. Clin. Invest. 75:1722-1728,which is incorporated by reference in its entirety.
In the case of the human breast carcinoma cell line Au565, 100%. Of the cells treated with 10 μM GOMB were positive for lipid staining whereas less than 1% of cells treated with the same concentration of AB were positive for lipid staining.

CFPAC cells = test: SRB cell proliferation assay; type: cell-based
Experimental: (§2) The inhibition of cell proliferation was measured in the indicated cancer cell lines using the sulforhoamine B (SRB) assay as described by Monks et al., J. Natl. Can. Inst. […] The SRB assay is used to screen for anti-cancer drugs.

HL-60 cells [7] = test: SRB cell proliferation assay; type: cell-based; settings: Homo sapiens; HL-60, SRB
Experimental: as §2

HT-29 cells = test: SRB cell proliferation assay; type: cell-based; settings: Homo sapiens; HT-29, SRB
Experimental: as §2

MCF7 cells = test: SRB cell proliferation assay; type: cell-based; settings: Homo sapiens
Experimental: as §2

[8] = test system: cancer cell lines (CFPAC, HL-60, HT-29, MCF7); test: SRB cell proliferation assay, all cell lines together; type: cell-based
Experimental: as §2

HL-60 cells [9] = test: Induction of apoptosis (propidium iodide, flow cytometry); type: cell-based, human; settings: 3 days
Experimental: (§3) Apoptosis was measured as described by Telford et al., 1991, Cell Physiol. 24:447-459, in HL-60 cells and in the human erthroblastic cell line, K-562. Cells were treated with COMB for 3 days, fixed, stained with propidium iodine and analyzed by flow cytometrly for cell cycle distribution. […] This region consisted of cells with fragmented DNA.

K-562 cells = test: as above; type: cell-based, human; settings: 3 days
Experimental: as §3

MCF-7 cells (WAF) = test: Apoptosis in breast cancer cells, staining with WAF antibody / Western blot; type: cell-based, human
Experimental: Induction of apoptosis by COMB and AB in MCF-7 cells was evaluated by staining cells with the WAF antibody and by Western blot analysis as described by Bacus et al., 1996, Oncogene 12:2535-2547.

K562 cells (HbF) [10] = test: Hb-containing K562 cells by benzidine staining; type: cell-based, human; settings: 5 days
Experimental: (§4) Hb Measurement: HB was measured by benzidine staining of K562 cells after 5 days exposure to GOMB or AB according to the procedure of Fibach et al. (1989) [full cite]. Quantitative measurement of HbF in K562 culture or human erythroid cultures was determined by ion-exchange high pressure liquid chromatography (HPLC) as described by Fibach et al., Blood 81:1630-1635, 1993.
(§5) K562 cells: K562 is an erthroblast cell line that develops some properties of erythroid, megakaryocyte or monocyte cells, depending on the specific stimulus, when induced by different chemicals. K562 cells were grown in RPMI with 10% FCS, supplemented with 2 mM glutamine. Cells were incubated at 37° C. in a humidified, 5% CO2 incubator.

K562 cells (HbF) [11] = test: HbF synthesis in K562 cells (ion-exchange HPLC); type: cell-based, human
Experimental: as §5

[12] = test system: erythroid cells from peripheral blood (HbF); test: HbF in cultured erythroid cells; type: cell-based; settings: Homo sapiens; 0.2 mM, relative to untreated control cultures; read-out: increase of HbF in cultured erythroid cells
Experimental: as §4
Erythroid cells: Erythroid cells were isolated from peripheral blood of healthy individuals by the method of Fibach (1993).

[13] = Homo sapiens, IMR-32 clonogenicity
[14] = Homo sapiens, LNCaP clonogenicity
[15] = Homo sapiens, MCF7-WT clonogenicity
[16] = Homo sapiens, PC3 clonogenicity

SMILES: CCCC(=O)OCOC(=O)CCCC(=O)O [GOMB, mono-(butyroyloxymethyl)glutarate]
- IC50 (IMR-32 (Neuroblastoma); [13]): 23 µM
- IC90 (IMR-32 (Neuroblastoma); [13]): 41 µM
- AB/GOMB IC50 Ratio (IMR-32 (Neuroblastoma); IMR-32): 38
- AB/GOMB IC90 Ratio (IMR-32 (Neuroblastoma); IMR-32): 87
- IC50 [1, 14]: 68.1 µM
- IC90 [1, 14]: 107 µM
- AB/GOMB IC50 Ratio ([1]; LNCaP): 11.4
- AB/GOMB IC90 Ratio ([1]; LNCaP): 63
- IC50 [2, 15]: 43.5 µM
- IC90 [2, 15]: 97 µM
- AB/GOMB IC50 Ratio ([2]; MCF7-WT): 34.5
- AB/GOMB IC90 Ratio ([2]; MCF7-WT): 97.7
- IC50 (PC3 (Prostate Carcinoma); [16]): 34.9 µM
- IC90 (PC3 (Prostate Carcinoma); [16]): 96.1 µM
- AB/GOMB IC50 Ratio (PC3 (Prostate Carcinoma); PC3): 6.48
- AB/GOMB IC90 Ratio (PC3 (Prostate Carcinoma); PC3): 46.6
- IC50 ([3]; Homo sapiens): 34 µM
- IC90 ([3]; Homo sapiens): 78 µM
- AB/GOMB IC50 Ratio ([3]; average): 13.9
- AB/GOMB IC90 Ratio ([3]; average): 27.3
- ratio of IC50 AB:IC50 GOMB, median [4]: 28.5
- ratio of IC90 AB:IC90 GOMB, median [4]: 53
- ratio of IC90 AB:IC90 GOMB, range [4]: 26-342 fold
- potency relative to AB in inhibiting EBV-positive lymphoma cells [5]: 10 fold
- cells positive for lipid staining [6]: 100%
- IC50 (CFPAC cells): 32.5 µM
- IC90 (CFPAC cells): 41 µM
- IC50 (HL-60 cells [7]): 24.5 µM
- IC90 (HL-60 cells [7]): 53.6 µM
- IC50 (HT-29 cells): 98.2 µM
- IC90 (HT-29 cells): 123 µM
- IC50 (MCF7 cells): 109 µM
- IC90 (MCF7 cells): 218 µM
- activity relative to AB by IC50 and IC90 values [8]: at least 100 fold
- % apoptotic cells HL-60 (HL-60 cells [9]; 5.0 μM): 9.4%
- % apoptotic cells HL-60 (HL-60 cells [9]; 12.5 μM): 14.9%
- % apoptotic cells HL-60 (HL-60 cells [9]; 25.0 μM): 15.8%
- % apoptotic cells HL-60 (HL-60 cells [9]; 37.5 μM): 36.3%
- % apoptotic cells K-562 (K-562 cells; 12.5 μM): 9%
- % apoptotic cells K-562 (K-562 cells; 25.0 μM): 18%
- % Cells Expressing WAF (MCF-7 cells (WAF); 10 μM): 36%
- % Cells Expressing WAF (MCF-7 cells (WAF); 25 μM): 34%
- % Cells Expressing WAF (MCF-7 cells (WAF); 50 μM): 79%
- % Cells Expressing WAF (MCF-7 cells (WAF); 100 μM): 81%
- increase in percentage of cells expressing WAF (MCF-7 cells (WAF); versus 13% in the controls): 623%
- concentration inducing apoptosis, lower than AB (MCF-7 cells (WAF); versus AB): 10 fold
- Percentage K562 Cells Containing HbF (K562 cells (HbF) [10]; 0.01 mM): 6.3 ± 1.15%
- Percentage K562 Cells Containing HbF (K562 cells (HbF) [10]; 0.05 mM): 12.3 ± 5.3%
- Percentage K562 Cells Containing HbF (K562 cells (HbF) [10]; 0.10 mM): 29%
- HbF Synthesis in K562 Cells (K562 cells (HbF) [11]; 0.01 mM): 1.54 µg/mL
- HbF Synthesis in K562 Cells (K562 cells (HbF) [11]; 0.05 mM): 3.21 µg/mL
- HbF Synthesis in K562 Cells (K562 cells (HbF) [11]; 0.10 mM): 5.0 µg/mL
- activation at 200 µM [12]: 49.5%
